Measured values published in ChEMBL document CHEMBL5518162, “Design, synthesis, and biological evaluation of 2-amino-6-methyl-phenol derivatives targeting lipid peroxidation with potent anti-ferroptotic activities” (Eur J Med Chem, 2024).
Active and inactive are the calls of the source. No cut-off for these calls is given here.

Key:
[1] = test system: HT-1080; experiment: Anti-ferroptotic activity against RSL3-induced ferroptosis in human HT-1080 cells assessed as inhibition of ferroptosis incubated for 24 hrs by CCK-8 assay; type: functional, cell-based; settings: HT-1080, 24 h
[2] = test system: HT-1080; experiment: Suppression of RSL-3 induced lipid ROS generation in human HT-1080 cells assessed as decrease in STY-BODIPY oxidation at 100 nM by C11-BODIPY581/591 staining based confocal microscopy; type: functional, cell-based
[3] = test system: HT-1080; experiment: Suppression of RSL-3 induced lipid ROS generation in human HT-1080 cells assessed as decrease in STY-BODIPY oxidation at 100 nM by C11-BODIPY581/591 staining based flow cytometry analysis; type: functional, cell-based
[4] = test system: HT-1080; experiment: Suppression of RSL3-induced malondialdehyde adducts accumulation in human HT-1080 cells at 100 nM by lipid peroxidation (MDA) assay; type: functional, cell-based
[5] = test system: HT-1080; experiment: Effect on TFRC level in RSL3-induced human HT-1080 cells by measuring mRNA level by qRT-PCT analysis; type: functional, cell-based
[6] = test system: HT-1080; experiment: Effect on DMT1 level in RSL3-induced human HT-1080 cells by measuring mRNA level by qRT-PCT analysis; type: functional, cell-based
[7] = test system: HT-1080; experiment: Effect on FTH1 level in RSL3-induced human HT-1080 cells by measuring mRNA level by qRT-PCT analysis; type: functional, cell-based
[8] = test system: HT-1080; experiment: Effect on ACSL4 level in RSL3-induced human HT-1080 cells by measuring mRNA level by qRT-PCT analysis; type: functional, cell-based
[9] = test system: HT-1080; experiment: Effect on GPX4 level in RSL3-induced human HT-1080 cells by measuring mRNA level by qRT-PCT analysis; type: functional, cell-based
[10] = test system: HT-1080; experiment: Effect on SLC7A11 level in RSL3-induced human HT-1080 cells by measuring mRNA level by qRT-PCT analysis; type: functional, cell-based
[11] = test system: HT-1080; experiment: Effect on TFRC level in unstimulated human HT-1080 cells by measuring mRNA level by qRT-PCT analysis; type: functional, cell-based
[12] = test system: HT-1080; experiment: Effect on DMT1 level in unstimulated human HT-1080 cells by measuring mRNA level by qRT-PCT analysis; type: functional, cell-based
[13] = test system: HT-1080; experiment: Effect on FTH1 level in unstimulated human HT-1080 cells by measuring mRNA level by qRT-PCT analysis; type: functional, cell-based
[14] = test system: HT-1080; experiment: Effect on ACSL4 level in unstimulated human HT-1080 cells by measuring mRNA level by qRT-PCT analysis; type: functional, cell-based
[15] = test system: HT-1080; experiment: Effect on GPX4 level in unstimulated human HT-1080 cells by measuring mRNA level by qRT-PCT analysis; type: functional, cell-based
[16] = test system: HT-1080; experiment: Effect on SLC7A11 level in unstimulated human HT-1080 cells by measuring mRNA level by qRT-PCT analysis; type: functional, cell-based
[17] = Antioxidant activity assessed as DPPH radical scavenging activity at 10 uM; type: functional
[18] = test system: HT-1080; experiment: Anti-ferroptotic activity against RSL3-induced ferroptosis in human HT-1080 cells assessed as reduction in cell death at 100 nM incubated for 24 hrs by CCK-8 assay; type: functional, cell-based
[19] = test system: HT-1080; experiment: Anti-ferroptotic activity against erastin-induced ferroptosis in human HT-1080 cells assessed as reduction in cell death at 100 nM incubated for 24 hrs by CCK-8 assay; type: functional, cell-based
[20] = test system: HT-1080; experiment: Anti-ferroptotic activity against ML210-induced ferroptosis in human HT-1080 cells assessed as reduction in cell death at 100 nM incubated for 24 hrs by CCK-8 assay; type: functional, cell-based
[21] = test system: HT-1080; experiment: Anti-ferroptotic activity against FIN56-induced ferroptosis in human HT-1080 cells assessed as reduction in cell death at 100 nM incubated for 24 hrs by CCK-8 assay; type: functional, cell-based
[22] = test system: HT-1080; experiment: Anti-ferroptotic activity against BSO-induced ferroptosis in human HT-1080 cells assessed as […] at 100 nM incubated for 24 hrs by CCK-8 assay; type: functional, cell-based
[23] = test system: Huh-7; experiment: Anti-ferroptotic activity against RSL3-induced ferroptosis in human Huh-7 cells assessed as […] at 100 nM incubated for 24 hrs by CCK-8 assay; type: functional, cell-based
[24] = test system: HeLa; experiment: Anti-ferroptotic activity against RSL3-induced ferroptosis in human HeLa cells assessed as […] at 100 nM incubated for 24 hrs by CCK-8 assay; type: functional, cell-based
[25] = test system: HTR-8/SVneo; experiment: Anti-ferroptotic activity against RSL3-induced ferroptosis in human HTR-8/SVneo cells assessed as […] at 100 nM incubated for 24 hrs by CCK-8 assay; type: functional, cell-based
[26] = test system: HepG2; experiment: Anti-ferroptotic activity against RSL3-induced ferroptosis in human HepG2 cells assessed as […] at 100 nM incubated for 24 hrs by CCK-8 assay; type: functional, cell-based
[27] = test system: Mus musculus; experiment: (§1) Protection of kidney in ischemia-reperfusion-induced kidney injury C57BL/6Nj mouse model assessed as reduction of serum creatinine level at 10 mg/kg, ip pretreated for 1 hr followed by bilateral artery clamping for 45 mins and measured after 24 hrs; type: functional, organism-based
[28] = test system: Mus musculus; experiment: Protection of kidney in ischemia-reperfusion-induced kidney injury C57BL/6Nj mouse model assessed as reduction of blood urea nitrogen level at 10 mg/kg, ip pretreated for 1 hr followed by bilateral artery clamping for 45 mins and measured after 24 hrs; type: functional, organism-based
[29] = test system: Mus musculus; experiment: (§2) Protection of kidney in ischemia-reperfusion-induced kidney injury C57BL/6Nj mouse model assessed as focal eosinophilic degeneration of renal tubular epithelial cells in the extra medullary zone at 10 mg/kg, ip pretreated for 1 hr followed by bilateral artery clamping for 45 mins and measured after 24 hrs by hematoxylin and eosin staining based analysis; type: functional, organism-based; settings: time 1545.0 min
[30] = test system: Mus musculus; experiment: as §2, with “necrosis” for “eosinophilic degeneration”, “and nuclear fixation” for “in the extra medullary zone”; type: functional, organism-based; settings: time 1545.0 min
[31] = test system: Mus musculus; experiment: as §1, with “prevention” for “reduction”, “[…] by measuring 4-HNE” for “serum creatinine level”, “hrs by immunohistochemistry staining based analysis” for “hrs”; type: functional, organism-based; settings: time 1545.0 min
[32] = test system: HT-1080; experiment: Anti-ferroptotic activity against RSL3-induced ferroptosis in human HT-1080 cells assessed as […] incubated for 24 hrs by CCK-8 assay; type: functional, cell-based; settings: dose 0.1-1 µM
[33] = test system: HT-1080; experiment: Anti-ferroptotic activity against erastin-induced ferroptosis in human HT-1080 cells assessed as […] incubated for 24 hrs by CCK-8 assay; type: functional, cell-based
[34] = test system: HT-1080; experiment: Anti-ferroptotic activity against RSL3-induced ferroptosis in human HT-1080 cells assessed as preservation of cell viability above […] incubated for 24 hrs by CCK-8 assay; type: functional, cell-based
[35] = test system: HT-1080; experiment: Anti-ferroptotic activity against erastin-induced ferroptosis in human HT-1080 cells assessed as preservation of cell viability above […] incubated for 24 hrs by CCK-8 assay; type: functional, cell-based
[36] = test system: HT-1080; experiment: Anti-ferroptotic activity against RSL3-induced ferroptosis in human HT-1080 cells assessed as reduction in cell viability at 250 nM incubated for 24 hrs by CCK-8 assay; type: functional
[37] = test system: HT-1080; experiment: Anti-ferroptotic activity against erastin-induced ferroptosis in human HT-1080 cells assessed as reduction in cell viability at 250 nM incubated for 24 hrs by CCK-8 assay; type: functional

For `Cc1cccc(NCc2ccc(Cl)cc2)c1O`, the EC50 [1] was 131 nM, the Activity [2] was “Active” and the Activity [3] was “Active”. For the same molecule, the Activity [4] was “Active”, the Activity [5] was “inactive” and the Activity [6] was “inactive”. For the same molecule, the Activity [7] was “inactive”, the Activity [8] was “inactive” and the Activity [9] was “inactive”. The Activity [10] was “inactive”, the Activity [11] was “inactive” and the Activity [12] was “inactive”. For the same molecule, the Activity [13] was “inactive”, the Activity [14] was “inactive” and the Activity [15] was “inactive”. For the same molecule, the Activity [16] was “inactive” and the Activity [17] was “Active”.

For `Cc1cccc(NCc2cccc(C#N)c2)c1O`, the EC50 [1] was 158 nM and the Activity [17] was “Active”.

With `Cc1ccc(CNc2cccc(C)c2O)cc1` the EC50 [1] was 25.5 nM, the Activity [18] was “Active” and the Activity [19] was “Active”. For the same molecule, the Activity [20] was “Active”, the Activity [21] was “Active” and the Activity [22] was “Active”. The Activity [23] was “Active”, the Activity [24] was “Active” and the Activity [25] was “Active”. For the same molecule, the Activity [26] was “Active”, the Activity [2] was “Active” and the Activity [3] was “Active”. The Activity [4] was “Active”, the Activity [5] was “inactive” and the Activity [6] was “inactive”. The Activity [7] was “inactive”, the Activity [8] was “inactive” and the Activity [9] was “inactive”. The Activity [10] was “inactive”, the Activity [11] was “inactive” and the Activity [12] was “inactive”. For the same molecule, the Activity [13] was “inactive”, the Activity [14] was “inactive” and the Activity [15] was “inactive”. For the same molecule, the Activity [16] was “inactive”, the Activity [17] was “Active” and the Activity [27] was “Active”. For the same molecule, the Activity [28] was “Active”, the Activity [29] was “Active” and the Activity [30] was “Active”. For the same molecule, the Activity [31] was “Active”.

In the case of `COc1ccc(CNc2cccc(C)c2O)cc1`, the EC50 [1] is reported as 78.9 nM and the Activity [17] is reported as “Active”.

In the case of `Cc1cccc(N)c1OCc1ccccc1`, the EC50 [1] is reported as > 10000 nM and the Activity [17] is reported as “Active”.

For `Cc1cccc(N)c1O`, the EC50 [1] was 207 nM, the Activity [32] was “Dose-Dependent Effect” and the Activity [33] was “Dose-Dependent Effect”. For the same molecule, the EC50 ([33]; HT-1080, 24 h) was 132 nM, the Activity [34] was “Active” and the Activity [35] was “Active”. For the same molecule, the Activity [17] was “Active”, the Activity [36] was 100% and the Activity [37] was 100%.

For `CCOC(=O)c1ccc(NC2CCCCC2)c(N)c1`, the EC50 [1] was 138 nM, the Activity [2] was “Active” and the Activity [3] was “Active”. For the same molecule, the Activity [17] was “Active”.

In the case of `CCCCNc1cccc(C)c1O`, the EC50 [1] is reported as 74.7 nM, the Activity [2] is reported as “Active” and the Activity [3] is reported as “Active”. For the same molecule, the Activity [4] was “Active”, the Activity [5] was “inactive” and the Activity [6] was “inactive”. For the same molecule, the Activity [7] was “inactive”, the Activity [8] was “inactive” and the Activity [9] was “inactive”. The Activity [10] was “inactive”, the Activity [11] was “inactive” and the Activity [12] was “inactive”. The Activity [13] was “inactive”, the Activity [14] was “inactive” and the Activity [15] was “inactive”. For the same molecule, the Activity [16] was “inactive” and the Activity [17] was “Active”.

For `CCNc1cccc(C)c1O`, the EC50 [1] was 60.4 nM and the Activity [17] was “Active”.

With `COc1c(C)cccc1N` the EC50 [1] was > 10000 nM and the Activity [17] was “Active”.

For `Nc1cccc(C(=O)O)c1O`, the EC50 [1] was > 10000 nM and the Activity [17] was “Active”.

With `Cc1cccc(NCc2cccc([N+](=O)[O-])c2)c1O` the EC50 [1] was 149 nM and the Activity [17] was “Active”.

With `COC(=O)c1ccc(CNc2cccc(C)c2O)cc1` the EC50 [1] was 164 nM and the Activity [17] was “Active”.

With `Cc1cccc(NCc2ccccc2)c1O` the EC50 [1] was 181 nM and the Activity [17] was “Active”.

For `Cc1cccc([N+](=O)[O-])c1O`, the EC50 [1] was > 10000 nM and the Activity [17] was “Active”.

For `CC(=O)c1cccc(N)c1O`, the EC50 [1] was > 10000 nM and the Activity [17] was “Active”.
